# Measured values reported in patent US10314841B2, “Substituted pyrazoles as IRAK inhibitors” (Merck Patent GmbH, priority 2014, dated 2019).
# Assays:
# [1] = tested on: TLR7 induced IL-6 secretion in human PBMC's; experiment: TLR7 induced IL-6 in human PBMC's; type: cell-based; conditions: human PBMC, TLR7 specific ligand 2 uM overnight, IL-6 Alpha LISA; read-out: TLR7 induced IL-6 secretion in hPBMC's (IC50)
# Experimental: TLR7 Induced IL-6 in Human PBMC's Human PBMC assay was used as one of the functional assays to monitor the activity of IRAK1 and IRAK4 small molecule inhibitors on TLR7 induced IL-6 secretion in human mononuclear cells (PBMC's). Human PBMCs were prepared from buffy coats (whole blood enriched with leukocytes and platelets) obtained from healthy volunteers used either fresh or frozen are plated in assay media (RPMI+2% P/S/L-glu+10% HI-FBS) and pre-treated with compounds in DMSO/media (range of concentrations from 25 uM to 0.4 nM) or controls (0.25% DMSO) for 30 minutes at 37° C. in assay media. Following pre-treatment with IRAK1 and IRAK4 inhibitors, PBMC's were stimulated with TLR7 specific ligand (2 uM) overnight (16-18 hrs) at 37° C. After incubation supernatant was transferred to 384 well PE AlphaPlate-384 (6005350) and IL-6 is quantified using Perkin Elmer IL-6 Alpha LISA kit (A[…]). Plates were read on an Envision® plate reader with Alpha Technology®.
# [2] = target: T1, IRAK4 (His-TEV-IRAK4) (Homo sapiens, UniProt Q9NWZ3); experiment: IRAK4 enzymatic assay; type: biochemical; conditions: human recombinant His-TEV-IRAK4, ATP 2 μM, STK1-biotin peptide 300 nM, 3 hours at 30° C., FlashPlate
# T1 construct: His (N); TEV cleavage site (N)
# T1 sequence (Q9NWZ3 1-460): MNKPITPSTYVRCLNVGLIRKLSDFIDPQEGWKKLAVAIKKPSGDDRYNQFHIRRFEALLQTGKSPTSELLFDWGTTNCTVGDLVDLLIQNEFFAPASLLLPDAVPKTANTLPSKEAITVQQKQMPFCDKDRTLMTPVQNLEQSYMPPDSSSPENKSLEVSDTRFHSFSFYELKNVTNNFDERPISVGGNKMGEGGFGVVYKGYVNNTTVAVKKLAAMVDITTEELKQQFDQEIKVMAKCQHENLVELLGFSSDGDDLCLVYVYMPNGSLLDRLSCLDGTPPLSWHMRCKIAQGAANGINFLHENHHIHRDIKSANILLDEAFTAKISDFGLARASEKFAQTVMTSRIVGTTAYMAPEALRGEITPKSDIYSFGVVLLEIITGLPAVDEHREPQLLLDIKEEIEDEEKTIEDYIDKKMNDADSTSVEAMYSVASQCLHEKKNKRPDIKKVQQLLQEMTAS
# Experimental: IRAK4 Enzymatic Assay IRAK4 is a human purified recombinant enzyme (His-TEV-[…] (194-712). IRAK4 hydrolyses ATP, autophosphorylates and phosphorylates a Serine/Threonine generic peptidic substrate (STK: 61 ST1BLC from CisBio International based in Bagnols/Cèze FR). Measurement of IRAK-4 inhibition was performed in streptavidin coated 384 well FlashPlate (PerkinElmer #SM[…]). His-TEV-IRAK4 (20 ng/well), ATP (2 μM, [^33P]ATP 0.25 μCi/well), STK1-biotin peptide (300 nM) and compounds in DMSO (range of concentrations from 20 μM to 1 nM) or controls (2% DMSO) were incubated for 3 hours at 30° C. in assay buffer: Hepes pH7.0 50 mM, Fatty acid-free BSA 0.1%, Dithiothreitol DTT 2 mM, MgCl2 10 mM, EGTA 0.5 mM, Tween-20 0.01%, MnCl2 5 mM. Kinase reaction was stopped by addition of EDTA. Supernatant was discarded, plates were washed three times with 150 mM NaCl and radioactivity was then measured in a Microbeta Trilux reader.
# [3] = target: T2, IRAK1 (His-TEV-IRAK1 (194-712)) (Homo sapiens, UniProt P51617); experiment: IRAK1 enzymatic assay; type: biochemical; conditions: human recombinant His-TEV-IRAK1, ATP 1 μM, 3 hours at 30° C., FlashPlate
# T2 construct: His-TEV-IRAK1 (194-712); His (N); TEV cleavage site (N)
# Experimental: IRAK1 Enzymatic Assay IRAK1 is a human purified recombinant enzyme (His-TEV-IRAK1 (194-712)). In this assay, IRAK-1 hydrolyses ATP and autophosphorylates. Measurement of IRAK-1 inhibition was performed in streptavidin coated 384 well FlashPlate (PerkinElmer #SM[…]). His-TEV-IRAK-1 (15 ng/well), ATP (1 μ[…]]ATP 0.25 μCi/well) and compounds in DMSO (range of concentrations from 20 μM to 1 nM) or controls (2% DMSO) were incubated for 3 hours at 30° C. in assay buffer: Hepes pH7.0 50 mM, Fatty acid-free BSA 0.1%, Dithiothreitol DTT 2 mM, MgCl2 10 mM, EGTA 0.5 mM, Triton-X-100 0.01%. Kinase reaction was stopped by addition of EDTA. Supernatant was discarded, plates were washed three times with 150 mM NaCl and radioactivity was then measured in a Microbeta Trilux reader.
# T2 sequence (P51617 194-712): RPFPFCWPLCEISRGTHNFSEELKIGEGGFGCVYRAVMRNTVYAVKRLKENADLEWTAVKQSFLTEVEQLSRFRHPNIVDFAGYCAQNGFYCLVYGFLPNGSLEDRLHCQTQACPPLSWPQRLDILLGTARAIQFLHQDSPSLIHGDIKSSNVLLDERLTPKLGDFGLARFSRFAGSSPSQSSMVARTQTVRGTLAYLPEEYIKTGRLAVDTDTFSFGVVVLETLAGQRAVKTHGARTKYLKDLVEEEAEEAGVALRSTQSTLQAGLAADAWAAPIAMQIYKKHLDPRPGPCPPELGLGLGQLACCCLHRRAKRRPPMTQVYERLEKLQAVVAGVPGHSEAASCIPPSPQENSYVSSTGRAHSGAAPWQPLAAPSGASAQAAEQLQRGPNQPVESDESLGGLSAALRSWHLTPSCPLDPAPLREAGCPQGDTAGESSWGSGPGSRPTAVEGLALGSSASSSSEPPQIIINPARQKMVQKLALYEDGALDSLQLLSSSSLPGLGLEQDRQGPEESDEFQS
SMILES,IC50 [2] [nM],IC50 [3] [nM],IC50 [1] [nM]
"Cn1cc(-c2cccc(-c3ncc(-c4cnn(C5CCN(C#N)CC5)c4)cn3)c2)cn1 [Compound 45, 4-(4-{2-[3-(1-Methyl-1H-pyrazol-4-yl)-phenyl]-pyrimidin-5-yl}-pyrazol-1-yl)-piperidine-1-carbonitrile]",< 100,100 to 1000,100 to 1000
"Cn1cc(-c2cccc(-c3ncc(-c4cnn(C5CCN(C(=O)/C(C#N)=C\C6CC6)CC5)c4)cn3)c2)cn1 [Compound 46, (Z)-3-Cyclopropyl-2-[4-(4-{2-[3-(1-methyl-1H-pyrazol-4-yl)-phenyl]-pyrimidin-5-yl}-pyrazol-1-yl)-piperidine-1-carbonyl]-acrylonitrile]",< 100,< 100,100 to 1000
"CC#CC(=O)N1CCC(n2cc(-c3cnc(-c4cccc(-c5cnn(C)c5)c4)nc3)cn2)CC1 [Compound 48, 1-[4-(4-{2-[3-(1-Methyl-1H-pyrazol-4-yl)-phenyl]-pyrimidin-5-yl}-pyrazol-1-yl)-piperidin-1-yl]-but-2-yn-1-one]",< 100,< 100,1000 to 20000

# More lines, main results first:
IC50 [2] [nM],IC50 [3] [nM],SMILES,IC50 [1] [nM]
< 100,100 to 1000,"C=CC(=O)N[C@H]1CCC[C@H](n2cc(-c3cnc(-c4cccc(-c5cnn(C)c5)c4)nc3)cn2)C1 [Compound 38, N-[(1S,3S)-3-(4-{2-[3-(1-Methyl-1H-pyrazol-4-yl)-phenyl]-pyrimidin-5-yl}-pyrazol-1-yl)-cyclohexyl]-acrylamide]",100 to 1000
< 100,1000 to 20000,"Cn1nccc1-c1cccc(-c2ncc(-c3cnn([C@H]4CC[C@]5(CCC(=O)N5C)CC4)c3)cn2)c1 [Compound 43, 1-Methyl-8-((S)-4-{2-[3-(2-methyl-2H-pyrazol-3-yl)-phenyl]-pyrimidin-5-yl}-pyrazol-1-yl)-1-aza-spiro[4.5]decan-2-one]",1000 to 20000
